Test results from patent US20250195513A1, “DEGRADATION OF IRAK4 BY CONJUGATION OF IRAK4 INHIBITORS WITH E3 LIGASE LIGAND AND METHODS OF USE” (BeiGene, Ltd., priority 2022, published 2025).

Legend:
IRAK4 [1] = biological target: T1, IRAK4 (Homo sapiens, UniProt Q9NWZ3); test: IRAK4 Degradation Assay with Human Serum (Karpas299, HTRF/TR-FRET); type: cell-based; settings: Karpas-299 in human serum, 24 hrs treatment; for DC50: read-out: IRAK4 degradtion with human serum assay DC50; for Dmax: read-out: IRAK4 degradtion with human serum assay Dmax (%)
T1 construct: endogenous in cells; host or cells: Karpas299
T1 sequence (Q9NWZ3 1-460): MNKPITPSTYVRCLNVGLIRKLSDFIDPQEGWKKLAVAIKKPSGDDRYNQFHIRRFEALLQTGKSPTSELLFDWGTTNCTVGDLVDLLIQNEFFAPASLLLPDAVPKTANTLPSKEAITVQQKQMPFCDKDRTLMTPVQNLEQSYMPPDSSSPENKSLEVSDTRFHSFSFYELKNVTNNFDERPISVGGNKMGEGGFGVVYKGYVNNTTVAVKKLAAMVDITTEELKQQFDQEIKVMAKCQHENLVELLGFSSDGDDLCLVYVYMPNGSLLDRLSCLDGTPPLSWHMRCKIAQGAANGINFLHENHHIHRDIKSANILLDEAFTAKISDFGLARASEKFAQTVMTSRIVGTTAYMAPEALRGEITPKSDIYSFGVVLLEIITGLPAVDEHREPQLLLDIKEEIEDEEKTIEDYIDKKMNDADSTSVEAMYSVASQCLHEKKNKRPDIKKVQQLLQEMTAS
Method in brief: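 Remaining IRAK4 measured by TR-FRET immunoassay on lysates of Karpas299 cells exposed 24 h to compound dilution series in human serum AB. DC50 derived from a Hill-slope fit of % degradation versus concentration.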

IRAK4 [2] = biological target: T1, IRAK4; test: IRAK4 Degradation Assay (Karpas299, HTRF/TR-FRET); type: cell-based; settings: Karpas-299 cells; for Dmax: maximum percentage of degradation
Method in brief: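 Compound potency as DC50 (IC50) came from four-parameter fits of percent IRAK4 degradation. IRAK4 was measured by HTRF (665/620 nm) in lysates of Karpas299 cells seeded at 0.2 million per well. Cells had been treated with compound dilutions for 5 or 24 h.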

[3] = 5 h treatment, read-out: IRAK4 in Karpas-299 (5 h) Dmax (%)
[4] = 5 h treatment, read-out: IRAK4 in Karpas-299 (5 h) DC50
[5] = 24 h treatment, read-out: IRAK4 in Karpas-299 (24 h) Dmax (%)
[6] = 24 h treatment, read-out: IRAK4 in Karpas-299 (24 h) DC50

SMILES | DC50 (IRAK4 [1]) [nM] | Dmax (IRAK4 [1]) [%] | Dmax (IRAK4 [2]; [3]) [%] | DC50 (IRAK4 [2]; [4]) [nM] | Dmax (IRAK4 [2]; [5]) [%] | DC50 (IRAK4 [2]; [6]) [nM]
CC(C)(O)c1cc2nn([C@H]3CC[C@H](N4CCN(C5CCN(c6ccc(C7CCC(=O)NC7=O)nc6)CC5)CC4)CC3)cc2cc1NC(=O)c1ccc2cc(C#N)cnn12 (stereo partly drawn) [Example 254, 3-cyano-N-(2-((1r,4r)-4-(4-(1-(6-(2,6-dioxopiperidin-3-yl)pyridin-3-yl)piperidin-4-yl)piperazin-1-yl)cyclohexyl)-6-(2-hydroxypropan-2-yl)-2H-indazol-5-yl)pyrrolo[1,2-b]pyridazine-7-carboxamide] | 25 | 98 | 97 | 6.7 | 96 | 4.4
CC(C)(O)c1cc2nn([C@H]3CC[C@H](CN4CCN(C5CCN(c6ccc7c(c6)C(=O)N(C6CCC(=O)NC6=O)C7=O)CC5)CC4)CC3)cc2cc1NC(=O)c1ccc2cc(C#N)cnn12 (stereo partly drawn) [Example 436, 3-cyano-N-(2-((1r,4r)-4-((4-(1-(2-(2,6-dioxopiperidin-3-yl)-1,3-dioxoisoindolin-5-yl)piperidin-4-yl)piperazin-1-yl)methyl)cyclohexyl)-6-(2-hydroxypropan-2-yl)-2H-indazol-5-yl)pyrrolo[1,2-b]pyridazine-7-carboxamide] | 14 | 85 |  |  | 96 | 10.8
C[C@H]1CN(CCc2cc(F)c([C@H]3CCC(=O)NC3=O)c(F)c2)CCN1[C@H]1CC[C@H](n2cc3cc(NC(=O)c4ccc5cc(C#N)cnn45)c(C(C)(C)O)cc3n2)CC1 [Example 305, 3-cyano-N-(2-((1S,4r)-4-((S)-4-(4-((R)-2,6-dioxopiperidin-3-yl)-3,5-difluorophenethyl)-2-methylpiperazin-1-yl)cyclohexyl)-6-(2-hydroxypropan-2-yl)-2H-indazol-5-yl)pyrrolo[1,2-b]pyridazine-7-carboxamide] | 5.1 | 99 |  |  | 96 | 1.7
CC(C)(O)c1cc2nn([C@H]3CC[C@H](N4CCN(CCc5cc(F)c([C@H]6CCC(=O)NC6=O)c(F)c5)C[C@@H]4CC#N)CC3)cc2cc1NC(=O)c1ccc2cc(C#N)cnn12 [Example 389, 3-cyano-N-(2-((1S,4r)-4-((S)-2-(cyanomethyl)-4-(4-((R)-2,6-dioxopiperidin-3-yl)-3,5-difluorophenethyl)piperazin-1-yl)cyclohexyl)-6-(2-hydroxypropan-2-yl)-2H-indazol-5-yl)pyrrolo[1,2-b]pyridazine-7-carboxamide] | 13 | 100 |  |  | 94 | 1
COC[C@H]1CN([C@H]2CC[C@H](n3cc4cc(NC(=O)c5ccc6cc(C#N)cnn56)c(C(C)(C)O)cc4n3)CC2)CCN1C1CCN(c2ccc(C3CCC(=O)NC3=O)nc2C)CC1 (stereo partly drawn) [Example 422, 3-cyano-N-(2-((1R,4r)-4-((3R)-4-(1-(6-(2,6-dioxopiperidin-3-yl)-2-methylpyridin-3-yl)piperidin-4-yl)-3-(methoxymethyl)piperazin-1-yl)cyclohexyl)-6-(2-hydroxypropan-2-yl)-2H-indazol-5-yl)pyrrolo[1,2-b]pyridazine-7-carboxamide] | 5.2 | 97 |  |  | 97 | 2.1
COC[C@@H]1CN([C@H]2CC[C@H](n3cc4cc(NC(=O)c5ccc6cc(C#N)cnn56)c(C(C)(C)O)cc4n3)CC2)CCN1C1CCN(c2ccc(C3CCC(=O)NC3=O)nc2C)CC1 (stereo partly drawn) [Example 418, 3-cyano-N-(2-((1S,4r)-4-((3S)-4-(1-(6-(2,6-dioxopiperidin-3-yl)-2-methylpyridin-3-yl)piperidin-4-yl)-3-(methoxymethyl)piperazin-1-yl)cyclohexyl)-6-(2-hydroxypropan-2-yl)-2H-indazol-5-yl)pyrrolo[1,2-b]pyridazine-7-carboxamide] | 6.1 | 100 |  |  | 94 | 1.8
CC(C)(O)c1cc2nn([C@H]3CC[C@H](N4CCN(C[C@H]5C[C@H](c6cc(F)c([C@H]7CCC(=O)NC7=O)c(F)c6)C5)CC4)CC3)cc2cc1NC(=O)c1ccc2cc(C#N)cnn12 [Example 382, 3-cyano-N-(2-((1R,4r)-4-(4-(((1R,3R)-3-(4-((R)-2,6-dioxopiperidin-3-yl)-3,5-difluorophenyl)cyclobutyl)methyl)piperazin-1-yl)cyclohexyl)-6-(2-hydroxypropan-2-yl)-2H-indazol-5-yl)pyrrolo[1,2-b]pyridazine-7-carboxamide] | 11 | 96 |  |  | 98 | 0.4
COC[C@H]1CN([C@H]2CC[C@H](n3cc4cc(NC(=O)c5ccc6cc(C#N)cnn56)c(C(C)(C)O)cc4n3)CC2)CCN1C(=O)[C@@H]1CCN(c2cc(F)c(N3CCC(=O)NC3=O)c(F)c2)C1 [Example 316, 3-cyano-N-(2-((1R,4r)-4-((R)-4-((R)-1-(4-(2,4-dioxotetrahydropyrimidin-1(2H)-yl)-3,5-difluorophenyl)pyrrolidine-3-carbonyl)-3-(methoxymethyl)piperazin-1-yl)cyclohexyl)-6-(2-hydroxypropan-2-yl)-2H-indazol-5-yl)pyrrolo[1,2-b]pyridazine-7-carboxamide] | 35 | 95 |  |  | 97 | 1.6
Cc1cc(C2CCC(=O)NC2=O)c(F)cc1[C@H]1C[C@@H](N2CCN([C@H]3CC[C@H](n4cc5cc(NC(=O)c6ccc7cc(C#N)cnn67)c(C(C)(C)O)cc5n4)CC3)CC2)C1 (stereo partly drawn) [Example 296, 3-cyano-N-(2-((1R,4r)-4-(4-((1s,3S)-3-(4-(2,6-dioxopiperidin-3-yl)-5-fluoro-2-methylphenyl)cyclobutyl)piperazin-1-yl)cyclohexyl)-6-(2-hydroxypropan-2-yl)-2H-indazol-5-yl)pyrrolo[1,2-b]pyridazine-7-carboxamide] | 18 | 100 | 91 | 5.4 | 97 | 1.8
CC(C)(O)c1cc2nn([C@H]3CC[C@H](N4CCN(C(=O)C5CN(c6cnc(C7CCC(=O)NC7=O)c(F)c6)C5)CC4)CC3)cc2cc1NC(=O)c1ccc2cc(C#N)cnn12 (stereo partly drawn) [Example 187, 3-cyano-N-(2-((1r,4r)-4-(4-(1-(6-(2,6-dioxopiperidin-3-yl)-5-fluoropyridin-3-yl)azetidine-3-carbonyl)piperazin-1-yl)cyclohexyl)-6-(2-hydroxypropan-2-yl)-2H-indazol-5-yl)pyrrolo[1,2-b]pyridazine-7-carboxamide] | 11 | 98 |  |  | 96 | 0.6
CC(C)(O)c1cc2nn([C@H]3CC[C@H](N4CCN(C(=O)N5CCN(c6ccc(C7CCC(=O)NC7=O)cc6)CC5)CC4)CC3)cc2cc1NC(=O)c1ccc2cc(C#N)cnn12 (stereo partly drawn) [Example 292, 3-cyano-N-(2-((1r,4r)-4-(4-(4-(4-(2,6-dioxopiperidin-3-yl)phenyl)piperazine-1-carbonyl)piperazin-1-yl)cyclohexyl)-6-(2-hydroxypropan-2-yl)-2H-indazol-5-yl)pyrrolo[1,2-b]pyridazine-7-carboxamide] | 37 | 95 |  |  | 94 | 1.8
